Results: patent publication US10159640B2, “Prebiotic oral care compositions containing amino acids” (COLGATE-PALMOLIVE COMPANY, priority 2013, dated 2018)

Key:
Format in all cases: cell-based
[1] = test system: Veillonella parvula; assay: Metabolic activity, Biolog phenotype microarray; details: control without dipeptide = 1
Procedure: (§1) The extent of metabolic activity of the tested bacteria in the presence of the above-mentioned dipeptides after 24 hours and 48 hours was investigated through a high throughput phenotype microarray system (PM) for microbial cells (Biolog Inc.). Each PM can contain up to 95 different biochemical compounds (e.g. di-peptides) that may act as substrates for bacteria as well as one negative control, not containing the substrates. Microarray plates were used in which the different wells of each plate were pre-loaded (by the manufacturer, Biolog Inc.) with different di-peptides to be tested. Each bacterial species was tested using a separate microarray plate. Thus, a single bacterial species was tested with a variety of dipeptides on each particular plate. The microarrays are based on redox technology, using cell respiration as a universal reporter. Active cell respiration results in the reduction of a tetrazolium dye and in the formation of a strong color—for example, when using the tetrazolium dye “Biolog Redox Dye Mix D”, the color changes from transparent/colourless to purple when the dye is reduced. The observation of this color change indicates which of the substrates improve the metabolic activity and health of the cells. Each bacterial species was collected from blood agar plates (incubated for 48 hours anaerobically at 37° C.) and transferred to an IF-0 Base inoculation fluid (Biolog Inc.), which is a nutritionally poor medium. The resulting cell suspension was adjusted to a transmittance of 42% (relative to the transmittance of the base inoculation fluid with no bacterial species present) at 492 nm using a BioRad SmartSpec 3000 Photometer (the adjustment being effected by adding either further inoculation fluid or further bacteria until the transmittance of 42% was achieved). A 1:5 dilution of this suspension was prepared by mixing 3 mL of the 42% transmittance cell suspension with 15 mL of an inoculation fluid (which inoculation fluid was formed by mixing 11.6 mL sterile water, 62.5 mL IF-0 base inoculation fluid and 0.9 mL of the tetrazolium dye “Biolog Redox Dye mix D”), resulting in a final cell density which was equal to 85% transmittance using a BioRad SmartSpec 3000 Photometer. 680 μL of a 2M sodium succinate/200 μM ferric citrate solution in distilled water was added to 68 mL of the 85% transmittance cell suspension and 100 μL of this mixture was added to each well (the various di-peptides being already present in powder form in the relevant wells of the plate as obtained from the supplier i.e. Biolog Inc.). All plates were incubated in an anaerobic atmosphere at 37° C. Color changes were measured spectrophotometrically at 492 nm (Thermo Scientific Multiskan Ascent) at 24 hrs and 48 hrs using the same plate at both time points. […] After 24 hrs and 48 hrs under continuous shaking in a Multiscan microplate reader, the optical density (OD) of the synthetic medium at 24 hours and 48 hours was measured (using the microplate reader) at a wavelength of 492 nm for each combination of bacterium/dipeptide, and for each of their respective controls (i.e. which contained the particular bacterium but no dipeptide). […] The experiment was carried out three times for each combination of bacterium with dipeptide, with each repeat being carried out on a different day (thus providing three biological replicas). The controls were also carried out three times, as above. The values shown are the average (mean) of the three single values obtained (as detailed above) for each combination of bacterium with dipeptide, at 24 hrs and at 48 hrs.

[2] = test system: Porphyromonas gingivalis; assay: Metabolic activity, Biolog phenotype microarray; details: control without dipeptide = 1
Procedure: as §1

[3] = test system: Actinomyces viscosus; assay: Metabolic activity, Biolog phenotype microarray; details: control without dipeptide = 1
Procedure: as §1

[4] = test system: Aggregatibacter actinomycetemcomitans; assay: Metabolic activity, Biolog phenotype microarray; details: control without dipeptide = 1
Procedure: as §1

[5] = test system: Streptococcus gordonii; assay: Metabolic activity, Biolog phenotype microarray; details: control without dipeptide = 1
Procedure: as §1

[6] = test system: Streptococcus salivarius; assay: Metabolic activity, Biolog phenotype microarray; details: control without dipeptide = 1
Procedure: as §1

[7] = test system: Streptococcus sanguinis; assay: Metabolic activity, Biolog phenotype microarray; details: control without dipeptide = 1
Procedure: as §1

[8] = test system: Streptococcus mitis; assay: Metabolic activity, Biolog phenotype microarray; details: control without dipeptide = 1
Procedure: as §1

[9] = test system: Fusobacterium nucleatum; assay: Metabolic activity, Biolog phenotype microarray; details: control without dipeptide = 1
Procedure: as §1

[10] = test system: Capnocytophaga sputigena; assay: Metabolic activity, Biolog phenotype microarray; details: control without dipeptide = 1
Procedure: as §1

[11] = test system: Actinomyces naeslundii; assay: Metabolic activity, Biolog phenotype microarray; details: control without dipeptide = 1
Procedure: as §1

[12] = test system: Tannerella forsythia; assay: Metabolic activity, Biolog phenotype microarray; details: control without dipeptide = 1
Procedure: as §1

[13] = test system: Streptococcus sobrinus; assay: Metabolic activity, Biolog phenotype microarray; details: control without dipeptide = 1
Procedure: as §1

[14] = test system: Streptococcus mutans; assay: Metabolic activity, Biolog phenotype microarray; details: control without dipeptide = 1
Procedure: as §1

[15] = test system: Prevotella intermedia; assay: Metabolic activity, Biolog phenotype microarray; details: control without dipeptide = 1
Procedure: as §1

[16] = test system: beneficial oral bacteria and pathogenic oral bacteria; assay: Metabolic activity, whole panel: prebiotic effect; details: threshold value of 2
Procedure: Substrates that were able to increase the metabolic activity of at least one of the above beneficial bacteria while not or only minimally increasing the growth of the pathogenic bacteria are considered to be prebiotic substrates. The extent of metabolic activity of the tested bacteria in the presence of the above-mentioned dipeptides after 24 hours and 48 hours was investigated through a high throughput phenotype microarray system (PM) for microbial cells (Biolog Inc.). Each PM can contain up to 95 different biochemical compounds (e.g. di-peptides) that may act as substrates for bacteria as well as one negative control, not containing the substrates. Microarray plates were used in which the different wells of each plate were pre-loaded (by the manufacturer, Biolog Inc.) with different di-peptides to be tested. Each bacterial species was tested using a separate microarray plate. Thus, a single bacterial species was tested with a variety of dipeptides on each particular plate. The microarrays are based on redox technology, using cell respiration as a universal reporter. Active cell respiration results in the reduction of a tetrazolium dye and in the formation of a strong color—for example, when using the tetrazolium dye “Biolog Redox Dye Mix D”, the color changes from transparent/colourless to purple when the dye is reduced. The observation of this color change indicates which of the substrates improve the metabolic activity and health of the cells. Each bacterial species was collected from blood agar plates (incubated for 48 hours anaerobically at 37° C.) and transferred to an IF-0 Base inoculation fluid (Biolog Inc.), which is a nutritionally poor medium. The resulting cell suspension was adjusted to a transmittance of 42% (relative to the transmittance of the base inoculation fluid with no bacterial species present) at 492 nm using a BioRad SmartSpec 3000 Photometer (the adjustment being effected by adding either further inoculation fluid or further bacteria until the transmittance of 42% was achieved). A 1:5 dilution of this suspension was prepared by mixing 3 mL of the 42% transmittance cell suspension with 15 mL of an inoculation fluid (which inoculation fluid was formed by mixing 11.6 mL sterile water, 62.5 mL IF-0 base inoculation fluid and 0.9 mL of the tetrazolium dye “Biolog Redox Dye mix D”), resulting in a final cell density which was equal to 85% transmittance using a BioRad SmartSpec 3000 Photometer. 680 μL of a 2M sodium succinate/200 μM ferric citrate solution in distilled water was added to 68 mL of the 85% transmittance cell suspension and 100 μL of this mixture was added to each well (the various di-peptides being already present in powder form in the relevant wells of the plate as obtained from the supplier i.e. Biolog Inc.). All plates were incubated in an anaerobic atmosphere at 37° C. Color changes were measured spectrophotometrically at 492 nm (Thermo Scientific Multiskan Ascent) at 24 hrs and 48 hrs using the same plate at both time points. […] After 24 hrs and 48 hrs under continuous shaking in a Multiscan microplate reader, the optical density (OD) of the synthetic medium at 24 hours and 48 hours was measured (using the microplate reader) at a wavelength of 492 nm for each combination of bacterium/dipeptide, and for each of their respective controls (i.e. which contained the particular bacterium but no dipeptide). […] The experiment was carried out three times for each combination of bacterium with dipeptide, with each repeat being carried out on a different day (thus providing three biological replicas). The controls were also carried out three times, as above. The values shown are the average (mean) of the three single values obtained (as detailed above) for each combination of bacterium with dipeptide, at 24 hrs and at 48 hrs. […] This value was selected in order to exclude low-stimulating metabolites and avoid false positive results.

Row | Substance | metabolic activity: OD 492 nm divided by OD of control ([1]; 24 hrs) | metabolic activity: OD 492 nm divided by OD of control ([1]; 48 hrs) | metabolic activity: OD 492 nm divided by OD of control ([2]; 24 hrs) | metabolic activity: OD 492 nm divided by OD of control ([2]; 48 hrs) | metabolic activity: OD 492 nm divided by OD of control ([3]; 24 hrs) | metabolic activity: OD 492 nm divided by OD of control ([3]; 48 hrs) | metabolic activity: OD 492 nm divided by OD of control ([4]; 24 hrs) | metabolic activity: OD 492 nm divided by OD of control ([4]; 48 hrs) | metabolic activity: OD 492 nm divided by OD of control ([5]; 24 hrs) | metabolic activity: OD 492 nm divided by OD of control ([5]; 48 hrs) | metabolic activity: OD 492 nm divided by OD of control ([6]; 24 hrs) | metabolic activity: OD 492 nm divided by OD of control ([6]; 48 hrs) | metabolic activity: OD 492 nm divided by OD of control ([7]; 24 hrs) | metabolic activity: OD 492 nm divided by OD of control ([7]; 48 hrs) | metabolic activity: OD 492 nm divided by OD of control ([8]; 24 hrs) | metabolic activity: OD 492 nm divided by OD of control ([8]; 48 hrs) | metabolic activity: OD 492 nm divided by OD of control ([9]; 24 hrs) | metabolic activity: OD 492 nm divided by OD of control ([9]; 48 hrs) | metabolic activity: OD 492 nm divided by OD of control ([10]; 24 hrs) | metabolic activity: OD 492 nm divided by OD of control ([10]; 48 hrs) | also measured
1 | Ser-Asn | 1.1101 | 1.1143 | 1.0079 | 1.2165 | 1.7174 | 2.0421 | 1.3093 | 1.7285 | 0.8814 | 1.3337 | 1.1917 | 1.5886 | 1.1935 | 1.5794 | 1.0807 | 1.5785 | 1.2165 | 1.4289 | 2.2418 | 1.5699 | metabolic activity: OD 492 nm divided by OD of control ([11]; 24 hrs): 1.3199; metabolic activity: OD 492 nm divided by OD of control ([11]; 48 hrs): 1.6167; metabolic activity: OD 492 nm divided by OD of control ([12]; 24 hrs): 1.2030; metabolic activity: OD 492 nm divided by OD of control ([12]; 48 hrs): 1.4354; metabolic activity: OD 492 nm divided by OD of control ([13]; 24 hrs): 1.2753; metabolic activity: OD 492 nm divided by OD of control ([13]; 48 hrs): 1.7028; metabolic activity: OD 492 nm divided by OD of control ([14]; 24 hrs): 1.2715; metabolic activity: OD 492 nm divided by OD of control ([14]; 48 hrs): 1.7588; metabolic activity: OD 492 nm divided by OD of control ([15]; 24 hrs): 1.1002; metabolic activity: OD 492 nm divided by OD of control ([15]; 48 hrs): 1.1329; prebiotic effects (metabolic activity) ([16]; 24 hrs): exhibited prebiotic effects; prebiotic effects (metabolic activity) ([16]; 48 hrs): exhibited prebiotic effects
2 | Glu-Trp | 0.8378 | 0.7873 | 0.9385 | 0.8770 | 1.5845 | 2.1016 | 0.9494 | 0.8665 | 1.1537 | 1.4320 | 1.0068 | 0.9525 | 0.9983 | 1.0208 | 0.9457 | 0.9396 | 0.9011 | 0.8364 | 1.7818 | 1.4150 | metabolic activity: OD 492 nm divided by OD of control ([11]; 24 hrs): 1.1008; metabolic activity: OD 492 nm divided by OD of control ([11]; 48 hrs): 1.2040; metabolic activity: OD 492 nm divided by OD of control ([12]; 24 hrs): 0.9320; metabolic activity: OD 492 nm divided by OD of control ([12]; 48 hrs): 0.9303; metabolic activity: OD 492 nm divided by OD of control ([13]; 24 hrs): 1.0018; metabolic activity: OD 492 nm divided by OD of control ([13]; 48 hrs): 0.9874; metabolic activity: OD 492 nm divided by OD of control ([14]; 24 hrs): 0.9492; metabolic activity: OD 492 nm divided by OD of control ([14]; 48 hrs): 1.0170; metabolic activity: OD 492 nm divided by OD of control ([15]; 24 hrs): 1.0170; metabolic activity: OD 492 nm divided by OD of control ([15]; 48 hrs): 0.9148; prebiotic effects (metabolic activity) ([16]; 48 hrs): exhibited prebiotic effects
